The record followed here is ChEMBL document CHEMBL1201862, “PubChem BioAssay data set” (2004).

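Following 48 hours of exposure in 96-well plates, responses at five concentrations were used to interpolate endpoints linearly. Here, GI50 denotes the concentration required for 50% inhibition of growth.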 The source made the active and inactive calls. No stated cut-off is given here; in the data, active = GI50 up to about 1.1 µM and inactive = higher.

Among the test systems are 786-0; UO-31; U-251; UACC-257; SK-MEL-28; NCI-H23; HOP-92; COLO 205; HOP-62; SK-MEL-5; NCI-H522; SNB-75; SN12C; A549; RXF 393; NCI-H226; SF-539; MOLT-4.
Common to all, as to experiment: NCI anticancer screen, dose series, 48 h

On to `Nc1nc[n+](Cc2ccccc2)c2ncn(Cc3ccccc3)c12`, for which the GI50 was > 100 µM (inactive) in the test on 786-0; 39.3 µM (inactive) in the test on UO-31; 45.7 µM (inactive) in the test on U-251; 63.8 µM (inactive) in the test on UACC-257; > 100 µM (inactive) in the test with SK-MEL-28; 97.7 µM (inactive) in the test with NCI-H23. Also, the GI50 with HOP-92 was 19.2 µM (inactive); in the test on COLO 205, 26.7 µM (inactive); with HOP-62, 32.6 µM (inactive); in the test on SK-MEL-5, 97.5 µM (inactive); in the test on NCI-H522 it was 81.3 µM (inactive); in the test with SNB-75, 34.9 µM (inactive). Besides, the GI50 was > 100 µM (inactive) in the test on SN12C; > 100 µM (inactive) with A549; 20.2 µM (inactive) in the test on RXF 393; > 100 µM (inactive) in the test on NCI-H226; > 100 µM (inactive) in the test on SF-539.
As to `COc1ccccc1/C=C(\NC(=O)c1ccccc1)c1nc2ccc(Cl)cc2[nH]1`, the GI50 is 27.4 µM (inactive) with 786-0; 18 µM (inactive) with UO-31; 30.5 µM (inactive) in the test with U-251; 32.7 µM (inactive) in the test on UACC-257; 27.1 µM (inactive) in the test with SK-MEL-28; 22.2 µM (inactive) in the test on NCI-H23. The GI50 is 22.7 µM (inactive) in the test on HOP-92; 19.1 µM (inactive) in the test with COLO 205; 17.3 µM (inactive) in the test with SK-MEL-5; 15.6 µM (inactive) with NCI-H522; 22.4 µM (inactive) in the test with SNB-75; 15.2 µM (inactive) in the test on MOLT-4. Moreover, the GI50 was 35.2 µM (inactive) with SN12C; 19.6 µM (inactive) with A549; 22.4 µM (inactive) in the test on RXF 393; 23.3 µM (inactive) in the test on NCI-H226; 56.2 µM (inactive) with SF-539.
For the compound `CCOC(=O)C1C(=O)c2cccc(OC)c2C2COC(=O)N12` (stereo not drawn), the GI50 with 786-0, with UO-31, in the test on U-251, with UACC-257, in the test with SK-MEL-28 and with NCI-H23 was > 100 µM (inactive) in each case. The GI50 in the test on HOP-92, in the test on COLO 205, in the test on HOP-62, in the test with SK-MEL-5, with NCI-H522 and with SNB-75 was > 100 µM (inactive) each time. The GI50 with MOLT-4, with SN12C, in the test with A549, in the test on RXF 393, in the test on NCI-H226 and in the test on SF-539 was > 100 µM (inactive) in each case.
For the compound `COc1cc2c(c(OC)c1OC)-c1ccc(SC)c(=O)cc1[C@@H](NCc1cccc([N+](=O)[O-])c1)CC2`, the GI50 in the test with 786-0 is < 0.01 µM (active); in the test on UO-31 it was 0.0366 µM (active); in the test on U-251 it was < 0.01 µM (active); with UACC-257, < 0.01 µM (active); with NCI-H23, < 0.01 µM (active); with HOP-92, < 0.01 µM (active). The GI50 was < 0.01 µM (active) in the test with COLO 205; < 0.01 µM (active) in the test with SK-MEL-5; < 0.01 µM (active) in the test with NCI-H522; 11.1 µM (inactive) in the test on SNB-75; < 0.01 µM (active) in the test with MOLT-4; < 0.01 µM (active) with SN12C. For the same compound, the GI50 in the test with A549, in the test on RXF 393, in the test with NCI-H226 and in the test with SF-539 was < 0.01 µM (active) each time.
